{
  "source": "patent US4966768A",
  "about": "“Sustained release etodolac” (priority 1988, dated 1990)",
  "origin": "cited, not measured here",
  "key": {"[1]": {"conditions": "in vivo"}, "adjuvant arthirtis": {"system": "adjuvant arthirtis", "conditions": "reported in U.S. Pat. No. 4,533,551"}},
  "note": "Entries after “also recorded” stand apart in the source; their conditions may differ.",
  "data": [
    {"molecule": "CCc1cccc2c3c([nH]c12)C(CC)(CC(=O)O)OCC3", "note": "(centres unmarked) [Etodolac, 1,8-diethyl-1,3,4,9-tetrahydropyrano[3,4-b] indole-1-acetic acid]", "values": [
      {"measurement": "aqueous solubility (in words)", "setting": "below pH 3", "value": "very low and pH independent below pH 3; also recorded: water insoluble to an appreciable extent below pH 3"},
      {"measurement": "difference in solubility between pH 5 and 7", "setting": "between pH 5 to 7", "value": "thirty"},
      {"measurement": "aqueous solubility with rising pH (in words)", "setting": "up to pH 5 and from pH 5 to 7", "value": "gradually increases with rising pH up to 5 and linearly increases with increasing pH to 7"},
      {"measurement": "reported pharmacological properties (in words)", "setting": "[1]", "value": "analgesic and anti-inflammatory properties"},
      {"measurement": "activity in adjuvant arthritis (in words)", "setting": "adjuvant arthirtis", "value": "active in the treatment of adjuvant arthirtis"}
    ]}
  ]
}
